Results from US8729089B2 (Gilead Sciences, Inc., priority 2006, dated 2014).
pEC50: −log10 of the molar value.

Columns and labels:
[1] = system: HCV replicon in human hepatoma Huh-7 cell line; test: Anti-HCV replicon assay (EC50, luciferase); assay type: cell-based; conditions: Hepatitis C virus, Huh-7, 72 h
Description: (§1) The anti-HCV activity of the pyrido[3,2-d]pyrimidine derivatives of this invention was tested in a human hepatoma Huh-7 cell line harboring a HCV replicon. The assay comprised the following steps:
(§2) Step 1: Compound Preparation and Serial Dilution
(§3) • 1. for water soluble pyrido[3,2-d]pyrimidine derivatives, a volume of 500 μL of solution in cell media (DMEM, 10% FBS, P/S, L-Glutamine) was prepared with a concentration being twice the concentration of the starting final serial dilution concentration. A volume of 150 μL of the solution was added to the pre-specified wells in column 1 of a 96-well cell culture plate (PerkinElmer, white plate, cat. #6005181, for EC50 assay; black plate, cat. #6005182 for CC50 assay). The rest of the plate, columns 2-12, was filled with 100 μL of cell media. The plate was then placed on a Precision 2000 Workstation to start the serial dilution. Compounds were diluted three times each step from column 1 to column 10. Column 11 was used as a blank control (no compound added). • 2. for pyrido[3,2-d]pyrimidine derivatives requiring DMSO to dissolve, serial dilution is performed in 50% DMSO in a 384-well plate. A solution containing a compound at 100-fold concentration of the starting final serial dilution concentration was prepared in 50% DMSO and added to the pre-specified wells in column 1 of a polypropylene 384-well plate. The plate was then placed on a Precision 2000 Workstation to start the serial dilution. After the serial dilution, a volume of 2 μL of the solution was transferred from the 384-well plate to a 96-well cell culture plate containing 100 μL of cell media on a Biomek FX Workstation. The DMSO concentration in the final assay condition was 0.5% after cells are added to the plate and the total volume in each well is brought to 200 μL.
(§4) Step 2: to each well of the serial dilution plate prepared above, 100 μL of cell media containing 6000 suspended Huh-7 HCV replicon cells was added with a Multidrop workstation. The plates were incubated for 3 days at 37° C. with 5% CO2.
(§5) • a) for the EC50 assay, the media in a 96-well cell culture plate was aspirated with a Biotek EL405 plate-washer. A volume of 200 μL of a solution containing a 1:1 mixture of cell-lysis buffer (Promega, Luciferase Cell Culture Lysis 5× Reagent, cat. #E1531) and luciferase substrate solution (Promega, Luciferase Assay, cat.#E4550) was added to each well of the plate with Multidrop. The plate was incubated for 30 minutes at room temperature before the luminescence signal was measured with a TopCount plate-reader. • b) for the CC50 assay, a volume of 100 μL of pre-mixed CellTiter-Glo (Promega, cat.#G7572) solution is added directly to the cell culture in each well of the plate and the luminescence signal is measured with a TopCount plate-reader after 10 minutes of incubation at room temperature.

[2] = CC50 assay (CellTiter-Glo) in Huh-7 HCV replicon cells; assay type: cell-based, human; conditions: human, 3 days incubation, CellTiter-Glo readout
Description: as §1, §2, §3, §4, §5

With `CCOc1nc(NCc2ccc(F)cc2)nc2ccc(-c3ccc4c(c3)CC(=O)N4)nc12` [Example 78, 5-[4-Ethoxy-2-(4-fluoro-benzylamino)-pyrido[3,2-d]pyrimidin-6-yl]-1,3-dihydro-indol-2-one] the pEC50 [1] was > 7.00 and the CC50 at 3 days [2] was 5 to 25 µM.
In the case of `CCOc1nc(NCc2ccc(F)cc2)nc2ccc(-c3ccc(NC(=O)C4CC4)nc3)nc12` [Example 79, Cyclopropanecarboxylic acid {5-[4-ethoxy-2-(4-fluoro-benzylamino)-pyrido[3,2-d]pyrimidin-6-yl]-pyridin-2-yl}-amide], the pEC50 [1] was > 7.00 and the CC50 at 3 days [2] was 5 to 25 µM.
In the case of `CCOc1nc(NCc2ccc(F)cc2)nc2ccc(-c3cnc(NC(=O)C4CC4)nc3)nc12` [Example 80, Cyclopropanecarboxylic acid {5-[4-ethoxy-2-(4-fluoro-benzylamino)-pyrido[3,2-d]pyrimidin-6-yl]-pyrimidin-2-yl}-amide], the pEC50 [1] was > 7.00 and the CC50 at 3 days [2] was 5 to 25 µM.
With `CCOc1nc(NCc2ccc(F)cc2)nc2ccc(-c3cccc(NS(=O)(=O)CCN4CCCC4)c3)nc12` [Example 81, 2-Pyrrolidin-1-yl-ethanesulfonic acid {3-[4-ethoxy-2-(4-fluoro-benzylamino)-pyrido[3,2-d]pyrimidin-6-yl]-phenyl}-amide] the pEC50 [1] was > 7.00 and the CC50 at 3 days [2] was < 5 µM.
In the case of `CCOc1nc(NCc2ccc(F)cc2)nc2ccc(-c3cccc(NS(=O)(=O)C4CC4)c3)nc12` [Example 82, Cyclopropanesulfonic acid {3-[4-ethoxy-2-(4-fluoro-benzylamino)-pyrido[3,2-d]pyrimidin-6-yl]-phenyl}-amide], the pEC50 [1] was > 7.00 and the CC50 at 3 days [2] was < 5 µM.
For `CCOc1nc(NCc2ccc(F)cc2)nc2ccc(-c3ccc(S(N)(=O)=O)cc3)nc12` [Example 83, 4-[4-Ethoxy-2-(4-fluoro-benzylamino)-pyrido[3,2-d]pyrimidin-6-yl]-benzenesulfonamide], the pEC50 [1] was > 7.00 and the CC50 at 3 days [2] was 5 to 25 µM.
In the case of `CCOc1nc(NCc2ccc(F)cc2)nc2ccc(-c3cccc(NS(=O)(=O)N(C)C)c3)nc12` [Example 84, N′-{3-[4-Ethoxy-2-(4-fluoro-benzylamino)-pyrido[3,2-d]pyrimidin-6-yl]-phenyl}-N.N-dimethyl methanesulfonyl urea], the pEC50 [1] was > 7.00 and the CC50 at 3 days [2] was < 5 µM.
For `CCOc1nc(NCc2ccc(F)cc2)nc2ccc(-c3cccc(S(N)(=O)=O)c3)nc12` [Example 85, 3-[4-Ethoxy-2-(4-fluoro-benzylamino)-pyrido[3,2-d]pyrimidin-6-yl]-benzenesulfonamide], the pEC50 [1] was > 7.00 and the CC50 at 3 days [2] was 5 to 25 µM.
For `CCOc1nc(NCc2ccc(F)cc2)nc2ccc(-c3ccc(N4CCC(O)C4=O)cc3)nc12` (centres unmarked) [Example 86, 1-{4-[4-Ethoxy-2-(4-fluoro-benzylamino)-pyrido[3,2-d]pyrimidin-6-yl]-phenyl}-3-hydroxy-pyrrolidin-2-one], the pEC50 [1] was > 7.00 and the CC50 at 3 days [2] was < 5 µM.
For `CCOc1nc(NCc2ccc(F)cc2)nc2ccc(-c3ccc(F)nc3)nc12` [Example 87, [4-Ethoxy-6-(6-fluoro-pyridin-3-yl)-pyrido[3,2-d]pyrimidin-2-yl]-(4-fluoro-benzyl)-amine], the pEC50 [1] was > 7.00 and the CC50 at 3 days [2] was < 5 µM.
For `CCOc1nc(NCc2ccc(F)cc2)nc2ccc(-c3ccc(NC(=O)[C@@H]4C[C@@H](O)CN4)cc3)nc12` [Example 88, 4-Hydroxy-pyrrolidine-2-carboxylic acid {4-[4-ethoxy-2-(4-fluoro-benzylamino)-pyrido[3,2-d]pyrimidin-6-yl]-phenyl}-amide], the pEC50 [1] was > 7.00 and the CC50 at 3 days [2] was 5 to 25 µM.
With `CCOc1nc(NCc2ccc(F)cc2)nc2ccc(-c3ccc(NC(=O)[C@@H]4CCCN4)cc3)nc12` [Example 89, Pyrrolidine-2-carboxylic acid {4-[4-ethoxy-2-(4-fluoro-benzylamino)-pyrido[3,2-d]pyrimidin-6-yl]-phenyl}-amide] the pEC50 [1] was > 7.00 and the CC50 at 3 days [2] was < 5 µM.
With `CCOc1nc(NCc2ccc(F)cc2)nc2ccc(-c3ccc(NC(=O)[C@H]4CCNC4)c(F)c3)nc12` [Example 90, Pyrrolidine-3-carboxylic acid {4-[4-ethoxy-2-(4-fluoro-benzylamino)-pyrido[3,2-d]pyrimidin-6-yl]-2-fluoro-phenyl}-amide] the pEC50 [1] was > 7.00 and the CC50 at 3 days [2] was < 5 µM.
With `CCOc1nc(NCc2ccc(F)cc2)nc2ccc(-c3ccc(NC(=O)[C@H]4CCNC4)cc3)nc12` [Example 91, Pyrrolidine-3-carboxylic acid {4-[4-ethoxy-2-(4-fluoro-benzylamino)-pyrido[3,2-d]pyrimidin-6-yl]-phenyl}-amide] the pEC50 [1] was > 7.00 and the CC50 at 3 days [2] was < 5 µM.
In the case of `CCOc1nc(NCc2ccc(F)cc2)nc2ccc(-c3ccc(NC(=O)OCCN4CCCC4)cc3)nc12` [Example 92, {4-[4-Ethoxy-2-(4-fluoro-benzylamino)-pyrido[3,2-d]pyrimidin-6-yl]-phenyl}-carbamic acid 2-pyrrolidin-1-yl-ethyl ester], the pEC50 [1] was > 7.00 and the CC50 at 3 days [2] was < 5 µM.
In the case of `CCOc1nc(NCc2ccc(F)cc2)nc2ccc(-c3ccc(NC(=O)NCCN4CCCC4)cc3)nc12` [Example 93, 1-{4-[4-Ethoxy-2-(4-fluoro-benzylamino)-pyrido[3,2-d]pyrimidin-6-yl]-phenyl}-3-(2-pyrrolidin-1-yl-ethyl)-urea], the pEC50 [1] was > 7.00 and the CC50 at 3 days [2] was < 5 µM.
For `CCOc1nc(NCc2ccc(F)cc2)nc2ccc(-c3ccc(C(=O)NC(C)(C)CO)cc3)nc12` [Example 94, 4-[4-Ethoxy-2-(4-fluoro-benzylamino)-pyrido[3,2-d]pyrimidin-6-yl]-N-(2-hydroxy-1,1-dimethyl-ethyl)-benzamide], the pEC50 [1] was > 7.00 and the CC50 at 3 days [2] was 5 to 25 µM.
For `CCOc1nc(NCc2ccc(F)cc2)nc2ccc(-c3ccc(C(=O)NC(C)(C)CN4CCCC4)cc3)nc12` [Example 95, N-(1,1-Dimethyl-2-pyrrolidin-1-yl-ethyl)-4-[4-ethoxy-2-(4-fluoro-benzylamino)-pyrido[3,2-d]pyrimidin-6-yl]-benzamide], the pEC50 [1] was > 7.00 and the CC50 at 3 days [2] was < 5 µM.
In the case of `CCOc1nc(NC2(c3ccc(F)cc3)CC2)nc2ccc(-c3ccc(C(=O)NC(C)(C)CN4CCCC4)cc3)nc12` [Example 96, N-(1,1-Dimethyl-2-pyrrolidin-1-yl-ethyl)-4-{4-ethoxy-2-[1-(4-fluoro-phenyl)-cyclopropylamino]-pyrido[3,2-d]pyrimidin-6-yl}-benzamide], the pEC50 [1] was > 7.00 and the CC50 at 3 days [2] was < 5 µM.
For `CCOc1nc(NCc2ccc(F)cc2)nc2ccc(-c3ccc(CO)o3)nc12` [Example 97, {5-[4-Ethoxy-2-(4-fluoro-benzylamino)-pyrido[3,2-d]pyrimidin-6-yl]-furan-2-yl}-methanol], the pEC50 [1] was > 7.00 and the CC50 at 3 days [2] was 5 to 25 µM.
For `CCOc1nc(NCc2ccc(F)cc2)nc2ccc(-c3ccc(C(=O)NC4(C#N)CC4)cc3)nc12` [Example 98, N-(1-Cyano-cyclopropyl)-4-[4-ethoxy-2-(4-fluoro-benzylamino)-pyrido[3,2-d]pyrimidin-6-yl]-benzamide], the pEC50 [1] was > 7.00 and the CC50 at 3 days [2] was > 25 µM.
With `CCOc1nc(NCc2ccc(F)cc2)nc2ccc(-c3ccc(NC(=O)C4(N)CC4)cc3)nc12` [Example 99, 1-Amino-cyclopropanecarboxylic acid {4-[4-ethoxy-2-(4-fluoro-benzylamino)-pyrido[3,2-d]pyrimidin-6-yl]-phenyl}-amide] the pEC50 [1] was > 7.00 and the CC50 at 3 days [2] was < 5 µM.
In the case of `CCOc1nc(NCc2ccc(F)cc2)nc2ccc(-c3cnc(N)s3)nc12` [Example 100, [6-(2-Amino-thiazol-5-yl)-4-ethoxy-pyrido[3,2-d]pyrimidin-2-yl]-(4-fluoro-benzyl)-amine], the pEC50 [1] was > 7.00 and the CC50 at 3 days [2] was < 5 µM.
For `CCOc1nc(NCc2ccc(F)cc2)nc2ccc(-c3ccc(NC(=O)C4(O)CC4)cc3)nc12` [Example 101, 1-Hydroxy-cyclopropanecarboxylic acid {4-[4-ethoxy-2-(4-fluoro-benzylamino)-pyrido[3,2-d]pyrimidin-6-yl]-phenyl}-amide], the pEC50 [1] was > 7.00 and the CC50 at 3 days [2] was 5 to 25 µM.
With `CCOc1nc(NCc2ccc(F)cc2)nc2ccc(-c3cccc(N(CCO)S(C)(=O)=O)c3)nc12` [Example 102, N-{3-[4-Ethoxy-2-(4-fluoro-benzylamino)-pyrido[3,2-d]pyrimidin-6-yl]-phenyl}-N-(2-hydroxy-ethyl)-methanesulfonamide] the pEC50 [1] was > 7.00 and the CC50 at 3 days [2] was 5 to 25 µM.
